From PubChem BioAssay (NCI)
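Each compound was tested at five concentrations against cells in 96-well plates for 48 hours. GI50 = concentration required for 50% inhibition of growth. TGI marks complete inhibition of growth.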

What was measured:
Test in all cases: inhibition of tumour cell growth, NCI panel, 48 h
SR leukemia = system: SR leukemia
SW-620 colon = system: SW-620 colon
IGROV1 ovarian = system: IGROV1 ovarian
CCRF-CEM leukemia = system: CCRF-CEM leukemia
MALME-3M melanoma = system: MALME-3M melanoma
HOP-62 NSCLC = system: HOP-62 NSCLC
A498 renal = system: A498 renal
RXF 393 renal = system: RXF 393 renal
EKVX NSCLC = system: EKVX NSCLC
COLO 205 colon = system: COLO 205 colon
NCI-H522 lung = system: NCI-H522 lung
SK-OV-3 ovarian = system: SK-OV-3 ovarian
SNB-19 CNS = system: SNB-19 CNS
T-47D breast = system: T-47D breast
MCF7 breast = system: MCF7 breast
U251 CNS = system: U251 CNS
M14 melanoma = system: M14 melanoma
UACC-62 melanoma = system: UACC-62 melanoma
MOLT-4 leukemia = system: MOLT-4 leukemia
UACC-257 melanoma = system: UACC-257 melanoma
HCC-2998 colon = system: HCC-2998 colon
HCT-15 colon = system: HCT-15 colon
HCT-116 colon = system: HCT-116 colon
SK-MEL-28 melanoma = system: SK-MEL-28 melanoma
NCI/ADR-RES ovarian = system: NCI/ADR-RES ovarian
SF-295 CNS = system: SF-295 CNS
UO-31 renal = system: UO-31 renal
NCI-H460 lung = system: NCI-H460 lung
DU-145 prostate = system: DU-145 prostate
OVCAR-8 ovarian = system: OVCAR-8 ovarian
HL-60(TB) leukemia = system: HL-60(TB) leukemia
HOP-92 NSCLC = system: HOP-92 NSCLC
OVCAR-4 ovarian = system: OVCAR-4 ovarian
PC-3 prostate = system: PC-3 prostate
TK-10 renal = system: TK-10 renal
BT-549 breast = system: BT-549 breast
SF-539 CNS = system: SF-539 CNS
KM12 colon = system: KM12 colon
ACHN renal = system: ACHN renal
SNB-75 CNS = system: SNB-75 CNS
K-562 leukemia = system: K-562 leukemia
LOX IMVI melanoma = system: LOX IMVI melanoma
RPMI-8226 leukemia = system: RPMI-8226 leukemia
HT29 colon = system: HT29 colon
SF-268 CNS = system: SF-268 CNS
MDA-MB-435 = system: MDA-MB-435
SN12C renal = system: SN12C renal
A549 NSCLC = system: A549 NSCLC
SK-MEL-2 melanoma = system: SK-MEL-2 melanoma
NCI-H226 lung = system: NCI-H226 lung
OVCAR-3 ovarian = system: OVCAR-3 ovarian
NCI-H23 lung = system: NCI-H23 lung
SK-MEL-5 melanoma = system: SK-MEL-5 melanoma
HS 578T breast = system: HS 578T breast
CAKI-1 renal = system: CAKI-1 renal
786-0 renal = system: 786-0 renal
MDA-MB-231 breast = system: MDA-MB-231 breast
MDA-N = system: MDA-N
OVCAR-5 ovarian = system: OVCAR-5 ovarian

## O=C(NNC1=NS(=O)(=O)c2ccccc2N1c1ccccc1)c1cnccn1
SR leukemia
  GI50: > 100 µM
  TGI: > 100 µM
SW-620 colon
  GI50: > 100 µM
  TGI: > 100 µM
IGROV1 ovarian
  GI50: > 100 µM
  TGI: > 100 µM
CCRF-CEM leukemia
  GI50: > 100 µM
  TGI: > 100 µM
MALME-3M melanoma
  GI50: > 100 µM
  TGI: > 100 µM
HOP-62 NSCLC
  GI50: > 100 µM
  TGI: > 100 µM
A498 renal
  GI50: > 100 µM
  TGI: > 100 µM
RXF 393 renal
  GI50: > 100 µM
  TGI: > 100 µM
EKVX NSCLC
  GI50: > 100 µM
  TGI: > 100 µM
COLO 205 colon
  GI50: > 100 µM
  TGI: > 100 µM
NCI-H522 lung
  GI50: > 100 µM
  TGI: > 100 µM
SK-OV-3 ovarian
  GI50: > 100 µM
  TGI: > 100 µM
SNB-19 CNS
  GI50: > 100 µM
  TGI: > 100 µM
T-47D breast
  GI50: > 100 µM
  TGI: > 100 µM
MCF7 breast
  GI50: > 100 µM
  TGI: > 100 µM
U251 CNS
  GI50: > 100 µM
  TGI: > 100 µM
M14 melanoma
  GI50: > 100 µM
  TGI: > 100 µM
UACC-62 melanoma
  GI50: > 100 µM
  TGI: > 100 µM
MOLT-4 leukemia
  GI50: > 100 µM
  TGI: > 100 µM
UACC-257 melanoma
  GI50: > 100 µM
  TGI: > 100 µM
HCC-2998 colon
  GI50: > 100 µM
  TGI: > 100 µM
HCT-15 colon
  GI50: 52.2 µM
  TGI: > 100 µM
HCT-116 colon
  GI50: > 100 µM
  TGI: > 100 µM
SK-MEL-28 melanoma
  GI50: > 100 µM
  TGI: > 100 µM
NCI/ADR-RES ovarian
  GI50: > 100 µM
  TGI: > 100 µM
SF-295 CNS
  GI50: > 100 µM
  TGI: > 100 µM
UO-31 renal
  GI50: 67.4 µM
  TGI: > 100 µM
NCI-H460 lung
  GI50: > 100 µM
  TGI: > 100 µM
DU-145 prostate
  GI50: > 100 µM
  TGI: > 100 µM
OVCAR-8 ovarian
  GI50: > 100 µM
  TGI: > 100 µM
HL-60(TB) leukemia
  GI50: > 100 µM
  TGI: > 100 µM
HOP-92 NSCLC
  GI50: > 100 µM
  TGI: > 100 µM
OVCAR-4 ovarian
  GI50: > 100 µM
  TGI: > 100 µM
PC-3 prostate
  GI50: > 100 µM
  TGI: > 100 µM
TK-10 renal
  GI50: > 100 µM
  TGI: > 100 µM
BT-549 breast
  GI50: > 100 µM
  TGI: > 100 µM
SF-539 CNS
  GI50: > 100 µM
  TGI: > 100 µM
KM12 colon
  GI50: > 100 µM
  TGI: > 100 µM
ACHN renal
  GI50: > 100 µM
  TGI: > 100 µM
SNB-75 CNS
  GI50: > 100 µM
  TGI: > 100 µM
K-562 leukemia
  GI50: > 100 µM
  TGI: > 100 µM
LOX IMVI melanoma
  GI50: > 100 µM
  TGI: > 100 µM
RPMI-8226 leukemia
  GI50: > 100 µM
  TGI: > 100 µM
HT29 colon
  GI50: > 100 µM
  TGI: > 100 µM
SF-268 CNS
  GI50: > 100 µM
  TGI: > 100 µM
MDA-MB-435
  GI50: > 100 µM
  TGI: > 100 µM
SN12C renal
  GI50: > 100 µM
  TGI: > 100 µM
A549 NSCLC
  GI50: > 100 µM
  TGI: > 100 µM
SK-MEL-2 melanoma
  GI50: > 100 µM
  TGI: > 100 µM
NCI-H226 lung
  GI50: > 100 µM
  TGI: > 100 µM
OVCAR-3 ovarian
  GI50: > 100 µM
  TGI: > 100 µM
NCI-H23 lung
  GI50: > 100 µM
  TGI: > 100 µM
SK-MEL-5 melanoma
  GI50: > 100 µM
  TGI: > 100 µM
HS 578T breast
  GI50: > 100 µM
  TGI: > 100 µM
CAKI-1 renal
  GI50: > 100 µM
  TGI: > 100 µM
786-0 renal
  GI50: > 100 µM
  TGI: > 100 µM
MDA-MB-231 breast
  GI50: > 100 µM
  TGI: > 100 µM

## NC(N)=N/N=C/c1c(-c2ccc([N+](=O)[O-])cc2)nc2sc(Cl)cn12
SW-620 colon
  TGI: 1.46 µM
CCRF-CEM leukemia
  TGI: 1.14 µM
MALME-3M melanoma
  TGI: 3.63 µM
HOP-62 NSCLC
  TGI: 3.11 µM
A498 renal
  TGI: 2.77 µM
RXF 393 renal
  TGI: 3.8 µM
EKVX NSCLC
  TGI: 1.53 µM
COLO 205 colon
  TGI: 2.06 µM
MDA-N
  TGI: 3.12 µM
SK-OV-3 ovarian
  TGI: 3.31 µM
T-47D breast
  TGI: > 100 µM
UACC-62 melanoma
  TGI: 3.01 µM
UACC-257 melanoma
  TGI: 1.41 µM
HCT-116 colon
  TGI: 0.575 µM
SK-MEL-28 melanoma
  TGI: 3.38 µM
NCI/ADR-RES ovarian
  TGI: 3.45 µM
UO-31 renal
  TGI: 2.68 µM
HOP-92 NSCLC
  TGI: 4.05 µM
OVCAR-4 ovarian
  TGI: 0.954 µM
PC-3 prostate
  TGI: 2.04 µM
TK-10 renal
  TGI: 3.69 µM
SF-539 CNS
  TGI: 4.01 µM
KM12 colon
  TGI: 2.4 µM
ACHN renal
  TGI: 2.42 µM
SNB-75 CNS
  TGI: 1.3 µM
RPMI-8226 leukemia
  TGI: 4 µM
HT29 colon
  TGI: 3 µM
SF-268 CNS
  TGI: 3.31 µM
MDA-MB-435
  TGI: 2.33 µM
SN12C renal
  TGI: 3.05 µM
A549 NSCLC
  TGI: 3.09 µM
SK-MEL-2 melanoma
  TGI: 3.2 µM
NCI-H23 lung
  TGI: 2.69 µM
SK-MEL-5 melanoma
  TGI: 3.6 µM
HS 578T breast
  TGI: > 100 µM
OVCAR-5 ovarian
  TGI: 2.69 µM
CAKI-1 renal
  TGI: 3.76 µM
786-0 renal
  TGI: 0.605 µM
